In ChEMBL document CHEMBL1201862, “PubChem BioAssay data set” (2004):
Active and inactive are the calls of the source.

What was measured:
[1] = molecular target: Heat shock protein HSP 90-alpha (Homo sapiens, UniProt P07900); format: functional, organism-based
[2] = Luminescence Cell-Based Dose Response HTS to Identify Activators of Luciferase Translation or Activity in H4 […] Cells. [Related pubchem assays: 1829 (Project Summary), 1814 (Primary HTS)]; format: functional
[3] = Luminescence Cell-Based Dose Confirmation HTS to Identify Activators of 5'UTR Stem-Loop Driven Alpha-Synuclein mRNA Translation in H4 Neuroglioblastoma Cells. [Related pubchem assays: 1829 (Project Summary), 1814 (Primary HTS)]; format: functional
H4 = test: Luminescence Cell-Based Dose Response HTS to Identify Activators of 5'UTR Stem-Loop Driven Prion Protein mRNA Translation in H4 Neuroglioblastoma Cells. [Related pubchem assays: 1829 (Project Summary), 1814 (Primary HTS)]; format: functional; conditions: Homo sapiens
[4] = microbe, parasite or virus in culture; format: functional; conditions: Mycobacterium tuberculosis
[5] = molecular target: T1, Polyadenylate-binding protein 1 (Homo sapiens, UniProt P11940); test: MLLE domain peptide-binding blockers, IC50 – biochemical, fluorescence polarization, FITC-PAM2 peptide, dose response (AID 602259); format: functional; conditions: read-out: IC50_Mean
T1 sequence (P11940 whole entry, the tested form may be a part): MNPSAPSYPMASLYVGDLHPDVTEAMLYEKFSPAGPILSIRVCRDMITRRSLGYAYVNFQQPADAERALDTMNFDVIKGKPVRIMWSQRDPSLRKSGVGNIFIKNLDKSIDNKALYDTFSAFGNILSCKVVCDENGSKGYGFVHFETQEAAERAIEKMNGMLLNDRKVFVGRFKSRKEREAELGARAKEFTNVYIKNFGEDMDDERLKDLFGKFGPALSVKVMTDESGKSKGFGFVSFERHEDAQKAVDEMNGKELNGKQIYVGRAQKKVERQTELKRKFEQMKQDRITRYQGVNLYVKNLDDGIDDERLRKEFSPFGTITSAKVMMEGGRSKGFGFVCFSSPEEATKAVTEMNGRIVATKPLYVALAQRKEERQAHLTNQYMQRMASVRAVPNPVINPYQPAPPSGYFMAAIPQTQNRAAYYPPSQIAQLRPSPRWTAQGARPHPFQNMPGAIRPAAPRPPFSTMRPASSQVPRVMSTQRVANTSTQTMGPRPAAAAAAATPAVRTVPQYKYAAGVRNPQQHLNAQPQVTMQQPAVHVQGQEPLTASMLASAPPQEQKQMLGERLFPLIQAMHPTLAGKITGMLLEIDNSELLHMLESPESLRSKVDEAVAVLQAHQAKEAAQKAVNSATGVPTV

Nonstructural protein 1 = Nonstructural protein 1 (Influenza A virus, UniProt Q194T2); format: functional, Influenza A virus (A/California/07/2009(H1N1))
Sequence of Nonstructural protein 1 (Q194T2 whole entry): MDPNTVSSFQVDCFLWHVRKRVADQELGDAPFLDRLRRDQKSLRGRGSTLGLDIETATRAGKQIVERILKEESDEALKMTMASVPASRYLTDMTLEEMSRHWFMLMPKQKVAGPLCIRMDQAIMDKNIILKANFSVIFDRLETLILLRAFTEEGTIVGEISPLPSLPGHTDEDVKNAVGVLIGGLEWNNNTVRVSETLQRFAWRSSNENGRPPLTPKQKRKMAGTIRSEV

[6] = molecular target: T1, Polyadenylate-binding protein 1; test: MLLE binding blockers, Cy5 peptide tracer – biochemical, fluorescence polarization, Cy5-PAM2 peptide, secondary, miRNA deadenylation inhibitor project, dose response (AID 602260); format: functional; conditions: read-out: IC50_Mean
Cytochrome P450 2C19 = Cytochrome P450 2C19 (Homo sapiens, UniProt P33261); test: Cytochrome panel assay with activity outcomes. Panel member name: p450-cyp2c19 Compounds with AC50 equal or less than 10 uM are considered active; format: functional; conditions: read-out: AC50
Sequence of Cytochrome P450 2C19 (P33261 whole entry): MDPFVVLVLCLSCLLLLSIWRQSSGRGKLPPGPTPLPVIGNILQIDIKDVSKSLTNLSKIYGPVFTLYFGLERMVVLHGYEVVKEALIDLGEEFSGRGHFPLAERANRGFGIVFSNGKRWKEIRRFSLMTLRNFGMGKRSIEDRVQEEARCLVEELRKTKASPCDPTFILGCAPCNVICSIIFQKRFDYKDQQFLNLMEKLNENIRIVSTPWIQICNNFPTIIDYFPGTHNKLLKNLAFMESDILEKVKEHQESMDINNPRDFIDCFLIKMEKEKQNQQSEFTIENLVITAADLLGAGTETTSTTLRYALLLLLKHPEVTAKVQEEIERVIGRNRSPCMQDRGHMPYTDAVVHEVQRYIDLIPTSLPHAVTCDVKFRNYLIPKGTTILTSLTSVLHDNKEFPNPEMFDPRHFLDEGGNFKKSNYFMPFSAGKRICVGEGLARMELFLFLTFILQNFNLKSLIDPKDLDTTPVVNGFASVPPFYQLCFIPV

Cytochrome P450 2C9 [7] = molecular target: T2, Cytochrome P450 2C9 (Homo sapiens, UniProt P11712)
T2 sequence (P11712 whole entry): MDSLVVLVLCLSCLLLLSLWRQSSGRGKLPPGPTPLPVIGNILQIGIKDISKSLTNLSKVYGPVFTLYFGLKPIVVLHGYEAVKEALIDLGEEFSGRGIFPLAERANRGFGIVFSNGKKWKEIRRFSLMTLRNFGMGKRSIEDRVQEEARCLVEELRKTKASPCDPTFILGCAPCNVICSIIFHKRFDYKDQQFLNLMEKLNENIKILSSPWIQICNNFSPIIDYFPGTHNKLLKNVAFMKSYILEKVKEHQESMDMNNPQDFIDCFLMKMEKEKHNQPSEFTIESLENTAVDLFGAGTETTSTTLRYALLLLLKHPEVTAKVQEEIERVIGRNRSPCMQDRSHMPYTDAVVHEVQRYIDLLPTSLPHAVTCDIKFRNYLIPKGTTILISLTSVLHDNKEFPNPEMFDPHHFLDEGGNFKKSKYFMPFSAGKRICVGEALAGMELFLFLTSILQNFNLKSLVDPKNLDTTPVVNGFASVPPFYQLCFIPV

Cytochrome P450 2D6 = Cytochrome P450 2D6 (Homo sapiens, UniProt P10635);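 note: CYP2D6 member of a cytochrome P450 panel assay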
Sequence of Cytochrome P450 2D6 (P10635 whole entry): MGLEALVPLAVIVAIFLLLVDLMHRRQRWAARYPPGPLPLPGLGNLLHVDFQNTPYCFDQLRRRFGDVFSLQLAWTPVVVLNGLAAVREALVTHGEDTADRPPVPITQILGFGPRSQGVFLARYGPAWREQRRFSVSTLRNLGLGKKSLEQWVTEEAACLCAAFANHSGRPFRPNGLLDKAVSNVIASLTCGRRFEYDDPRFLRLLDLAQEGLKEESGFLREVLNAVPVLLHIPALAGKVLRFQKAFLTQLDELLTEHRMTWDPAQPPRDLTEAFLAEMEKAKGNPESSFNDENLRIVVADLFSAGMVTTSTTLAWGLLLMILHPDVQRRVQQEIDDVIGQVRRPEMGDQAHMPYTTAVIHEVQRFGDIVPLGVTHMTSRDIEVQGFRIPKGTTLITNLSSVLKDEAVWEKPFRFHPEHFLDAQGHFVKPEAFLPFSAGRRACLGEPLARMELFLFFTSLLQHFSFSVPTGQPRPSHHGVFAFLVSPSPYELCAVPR

[8] = viability of uninfected HEp-2 cells – cell-based, HTS, cytotoxicity control for RSV inhibitor project, dose response (AID 2410); format: functional; conditions: human respiratory syncytial virus
[9] = viability loss in HeLa cells – cytotoxicity control for MgcRacGAP inhibitor project, dose response (AID 624300); format: functional
[10] = molecular target: T3, Heat shock factor protein 1 (Mus musculus, UniProt P38532); test: enhancement of HSF1-driven luciferase signal – cell-based, NIH3T3, luminescence, dose retest, confirmation (AID 435004); format: functional;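 note: stress induced by proteasome inhibitor MG132 added 30 min after compound; luciferase reporter driven by HSF1 response element in NIH3T3 cells; actives raise luminescence as potentiators of the MG132 stress response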
T3 sequence (P38532 whole entry): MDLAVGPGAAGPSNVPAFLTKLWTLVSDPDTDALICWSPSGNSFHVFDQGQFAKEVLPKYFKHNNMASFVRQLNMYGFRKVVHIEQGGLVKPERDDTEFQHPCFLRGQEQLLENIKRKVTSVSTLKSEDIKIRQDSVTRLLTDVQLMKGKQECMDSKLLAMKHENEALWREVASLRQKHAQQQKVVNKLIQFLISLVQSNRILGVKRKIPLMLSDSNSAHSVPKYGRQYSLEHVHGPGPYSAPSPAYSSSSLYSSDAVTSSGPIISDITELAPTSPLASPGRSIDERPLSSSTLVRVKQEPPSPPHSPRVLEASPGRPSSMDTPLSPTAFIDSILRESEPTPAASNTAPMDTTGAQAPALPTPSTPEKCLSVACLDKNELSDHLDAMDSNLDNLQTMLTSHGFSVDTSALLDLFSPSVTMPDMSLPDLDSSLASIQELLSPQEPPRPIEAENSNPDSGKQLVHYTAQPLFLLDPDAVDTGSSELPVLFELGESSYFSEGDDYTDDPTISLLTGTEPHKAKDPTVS

[11] = viability loss in THP-1 monocytes – THP-1 cells, cytotoxicity control for Vif-APOBEC3G degradation inhibitor project, dose response (AID 1117359); format: functional; conditions: THP-1
[12] = NIH3T3 cell viability loss – ATP luminescence, mouse fibroblasts, counter-screen, dose response (AID 2010); format: functional, cell-based;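 note: cells exposed to compound for about 90 hours before reading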
[13] = Trypanosoma cruzi growth suppression in host cells – NIH3T3 host cells, beta-gal luminescence, confirmation (AID 2044); format: functional, cell-based;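 note: intracellular parasites grown in NIH/3T3 mouse fibroblasts as host cells; luminescent beta-galactosidase reporter signal from transgenic T. cruzi replicating inside host cells; inhibitors lower the luminescence signal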
[14] = system: Streptococcus sp. 'group A'; test: Streptococcus pyogenes SK(-)GAS viability under kanamycin – luminescence, BacTiterGlo, confirmation, counter-screen for streptokinase expression inhibitor project, dose response (AID 1900); format: functional, organism-based
Streptococcus = test: GAS UMAA2166 growth inhibition – luminescence, BacTiterGlo, counter-screen for streptokinase expression inhibitor project, dose response (AID 1915); format: functional, organism-based;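 note: potency for reduction of bacterial viability or growth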
[15] = molecular target: T4, Rac GTPase-activating protein 1 (Homo sapiens, UniProt Q9H0H5); test: blockers of MgcRacGAP-driven Rac1 GTP hydrolysis – biochemical, ADP Hunter fluorescence, primary and confirmatory, confirmation (AID 624330); format: functional
T4 sequence (Q9H0H5 whole entry): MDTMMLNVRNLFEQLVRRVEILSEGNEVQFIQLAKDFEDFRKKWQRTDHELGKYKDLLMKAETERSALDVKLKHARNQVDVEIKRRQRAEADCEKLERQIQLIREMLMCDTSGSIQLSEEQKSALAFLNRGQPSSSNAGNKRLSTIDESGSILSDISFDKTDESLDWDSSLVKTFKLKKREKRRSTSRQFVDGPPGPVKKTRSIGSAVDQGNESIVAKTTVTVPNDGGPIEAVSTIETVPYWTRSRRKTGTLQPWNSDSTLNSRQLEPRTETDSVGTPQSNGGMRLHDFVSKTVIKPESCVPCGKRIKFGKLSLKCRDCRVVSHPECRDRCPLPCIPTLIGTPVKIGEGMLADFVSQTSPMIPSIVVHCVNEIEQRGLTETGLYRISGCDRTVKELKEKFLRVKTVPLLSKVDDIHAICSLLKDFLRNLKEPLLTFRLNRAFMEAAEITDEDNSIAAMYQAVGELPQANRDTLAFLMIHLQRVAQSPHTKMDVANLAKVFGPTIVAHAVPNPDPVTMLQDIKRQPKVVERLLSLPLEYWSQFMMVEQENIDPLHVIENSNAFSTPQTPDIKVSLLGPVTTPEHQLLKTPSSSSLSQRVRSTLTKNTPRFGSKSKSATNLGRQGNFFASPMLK

[16] = molecular target: FAD-linked sulfhydryl oxidase ALR (Homo sapiens, UniProt P55789); test: ALR-catalysed DTT oxidation blockers – biochemical, H2O2 detection, luminescence, cherry-pick, dose response (AID 493248)
Sequence of FAD-linked sulfhydryl oxidase ALR (P55789 whole entry): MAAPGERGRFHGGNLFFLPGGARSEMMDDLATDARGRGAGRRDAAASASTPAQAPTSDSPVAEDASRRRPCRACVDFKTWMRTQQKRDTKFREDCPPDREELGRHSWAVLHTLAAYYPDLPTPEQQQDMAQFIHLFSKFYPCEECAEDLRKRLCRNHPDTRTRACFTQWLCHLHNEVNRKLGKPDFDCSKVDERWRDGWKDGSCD

Cytochrome P450 3A4 = Cytochrome P450 3A4 (Homo sapiens, UniProt P08684);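 note: CYP3A4 tested as one member of a cytochrome P450 panel screen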
Sequence of Cytochrome P450 3A4 (P08684 whole entry): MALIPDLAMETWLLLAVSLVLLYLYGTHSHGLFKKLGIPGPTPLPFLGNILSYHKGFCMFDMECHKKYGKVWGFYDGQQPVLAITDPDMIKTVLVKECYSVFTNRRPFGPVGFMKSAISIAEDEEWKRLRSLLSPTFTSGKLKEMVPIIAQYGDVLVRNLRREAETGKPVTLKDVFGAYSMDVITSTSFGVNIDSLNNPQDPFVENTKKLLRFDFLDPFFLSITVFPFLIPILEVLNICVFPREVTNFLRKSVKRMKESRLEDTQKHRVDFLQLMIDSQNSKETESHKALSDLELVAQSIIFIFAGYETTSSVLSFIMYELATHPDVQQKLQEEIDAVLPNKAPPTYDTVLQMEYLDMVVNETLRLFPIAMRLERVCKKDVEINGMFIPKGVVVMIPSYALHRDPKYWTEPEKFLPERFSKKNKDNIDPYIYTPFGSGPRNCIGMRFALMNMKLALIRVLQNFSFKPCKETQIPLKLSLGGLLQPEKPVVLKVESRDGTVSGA

Cytochrome P450 1A2 = molecular target: T5, Cytochrome P450 1A2 (Homo sapiens, UniProt P05177);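 note: PubChem cytochrome P450 panel assay, CYP1A2 panel member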
T5 sequence (P05177 whole entry): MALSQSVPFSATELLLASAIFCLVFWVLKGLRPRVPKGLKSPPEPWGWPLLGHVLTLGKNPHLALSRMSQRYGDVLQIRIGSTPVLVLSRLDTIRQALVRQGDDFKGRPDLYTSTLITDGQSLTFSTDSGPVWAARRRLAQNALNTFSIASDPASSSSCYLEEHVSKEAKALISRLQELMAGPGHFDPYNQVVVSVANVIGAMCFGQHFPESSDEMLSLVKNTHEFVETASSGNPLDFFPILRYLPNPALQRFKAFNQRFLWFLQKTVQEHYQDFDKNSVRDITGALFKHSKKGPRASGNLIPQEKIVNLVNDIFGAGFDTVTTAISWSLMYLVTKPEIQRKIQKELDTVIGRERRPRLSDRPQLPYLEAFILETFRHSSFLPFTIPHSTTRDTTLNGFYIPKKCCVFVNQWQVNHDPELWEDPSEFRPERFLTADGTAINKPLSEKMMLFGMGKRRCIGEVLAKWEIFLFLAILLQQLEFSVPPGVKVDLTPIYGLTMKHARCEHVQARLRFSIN

Cytochrome P450 2C9 [17] = molecular target: T2, Cytochrome P450 2C9; remark: listed apart in the source

Cc1ccc(C(=O)ONC(=O)c2ccc(Cl)cc2)cc1[N+](=O)[O-]
AC50 [1]: 4.03 µM (active)

COc1ccc(-c2cc(=Nc3ccccc3)c3cc(C)ccc3o2)cc1.[O-][Cl+3]([O-])([O-])O
EC50 [2]: 10.3 µM (active)
EC50 [3]: 12.7 µM (active)
EC50 (H4): 9.82 µM (active)

O=C(C1CC1)N1CCCC(c2ccc(Cl)cc2)=N1
CC50 [4]: > 40 µM (active)

NC(=O)NC(=O)CC1SC(NN=C2CSC(=O)N2)=NC1=O (stereo unspecified)
IC50 [5]: > 66 µM (inactive)
IC50 (Nonstructural protein 1): 7.54 µM (active)
IC50 [6]: > 66 µM (inactive)

COc1cccc(-c2nc3n(n2)C(c2ccc4c(c2)OCO4)C(C(N)=O)=C(C)N3)c1 (stereo unspecified)
EC50 [2]: 31.6 µM (active)
EC50 [3]: 12.4 µM (active)
EC50 (H4): > 120 µM (not active)

C/C(CC(=O)NCCCN1CCOCC1)=N\NC(=O)COc1ccc(Cl)cc1
AC50 (Cytochrome P450 2C19): 10 µM (inconclusive)
AC50 (Cytochrome P450 2C9 [7]): inconclusive
AC50 (Cytochrome P450 2D6): 14.1 µM (inconclusive)

Sc1nnc(-c2cc[nH]n2)n1-c1ccccc1Cl
EC50 [2]: 24.1 µM (active)
EC50 [3]: 12.7 µM (active)
EC50 (H4): 19.3 µM (active)

CCCn1c(C2CCCN2c2nc(-c3cccc(Br)c3)cs2)nc2ccccc21 (stereo unspecified)
EC50 [2]: 32.7 µM (active)
EC50 [3]: 5.7 µM (active)
EC50 (H4): > 120 µM (not active)
CC50 [8]: 20.9 µM (active)

O=C(N/N=C/c1ccccc1O)C1SCCCS1
IC50 (Nonstructural protein 1): 35.6 µM (active)

Cn1c(-c2cccc([N+](=O)[O-])c2)cnc1NCc1cccc([N+](=O)[O-])c1
CC50 [9]: 100 µM (active)

CCc1ccc(S(=O)(=O)N(C(=O)c2ccncc2)c2ccc(OC(=O)c3ccncc3)cc2)cc1
AC50 [1]: 1.03 µM (active)

CCCCN=C(S)NNC(=O)c1csc2ccccc12
EC50 [10]: > 260 µM (inactive)

CC(C)(C)C(=O)NCC12C=CC(O1)C1C(=O)N(c3ccccc3)C(=O)C12 (stereo unspecified)
EC50 [10]: > 260 µM (inactive)
AC50 [1]: 8.25 µM (active)

CN(C)/C=C/C(=O)/C=C/c1cn(-c2ncc(C(F)(F)F)cc2Cl)c2ccccc12
AC50 [1]: 2.9 µM (active)

CC1=CC2OC3CC4OC(=O)C=CC=CC(=O)OCCC(C)C(O)C(=O)OCC2(CC1)C4(C)C31CO1 (stereo unspecified)
AC50 [1]: < 0.195 µM (active)

CC(C)c1cc(C(=O)Nc2cc(Br)ccc2O)no1
EC50 [2]: > 120 µM (not active)
EC50 [3]: 14 µM (active)
EC50 (H4): > 120 µM (not active)

CCCCCCC(=O)N(O)C1CC(=O)N(c2ccc(C)cc2)C1=O (stereo unspecified)
IC50 [5]: > 66 µM (inactive)
AC50 [1]: 1.43 µM (active)
IC50 [6]: > 66 µM (inactive)

Cc1ccc(S(=O)(=O)N(C)c2ccccc2C(=O)N2CCCC2)cc1
CC50 [11]: > 40 µM (active)

CCC(=O)N1N=C(c2ccc(NS(C)(=O)=O)cc2)CC1c1ccc(C)cc1 (stereo unspecified)
CC50 [11]: > 40 µM (active)

COc1ccc(NC(=O)c2sccc2SCc2cccc(C(F)(F)F)c2)cc1
EC50 [10]: > 260 µM (inactive)
EC50 [12]: > 60 µM (not active)
EC50 [13]: 2.61 µM (active)

COc1ccc(CNC(=O)Cn2cccc2C(=O)c2ccccc2C)cc1
EC50 [2]: 10.2 µM (active)
EC50 [3]: 10.3 µM (active)
EC50 (H4): 16.8 µM (active)

CC(=O)c1c(C)[n+]([O-])c2cc(F)c(F)cc2[n+]1[O-]
CC50 [4]: 35.4 µM (active)

CCOC(=O)c1c(C)c(/C=N/Nc2ccccc2)n(C)c1C
CC50 [11]: > 40 µM (active)

Cc1cc(O)c2c(c1)C(=O)c1cc(O)cc(O)c1C2=O [EMODIN]
CC50 [4]: 20.1 µM (active)

O=C(CCCN1CC=C(n2c(=O)[nH]c3ccccc32)CC1)c1ccc(F)cc1 [DROPERIDOL]
AC50 (Cytochrome P450 2C9 [7]): inconclusive

COc1ccc(NC(=O)C(=O)NCC(c2ccco2)N2CCc3ccccc3C2)cc1 (stereo unspecified)
CC50 [4]: > 40 µM (active)

O=C(NC(=S)NNC(=O)c1ccccc1O)c1ccccc1
EC50 [14]: 2.04 µM (active)
EC50 (Streptococcus): 8.1 µM (active)
IC50 (Nonstructural protein 1): 14.2 µM (active)

CCCCC(=O)NN/C=C1\C(=O)NC(=O)N(Cc2ccco2)C1=O
IC50 (Nonstructural protein 1): 13.7 µM (active)

CCCCCCCCn1cnc2c(N)c(C)c(C)cc21
CC50 [4]: > 40 µM (active)

Sc1nnc(-c2ccco2)n1/N=C/c1cccc(Cl)c1Cl
CC50 [9]: 96.5 µM (active)
IC50 [15]: 95.7 µM (active)
AC50 [16]: 4.84 µM (active)

COc1ccc(CNc2ncncc2-c2cccnc2)c(OC)c1
AC50 (Cytochrome P450 2C9 [7]): inconclusive

COc1ccccc1OCC(=O)N/N=C1/SCC(=O)N1Cc1ccccc1
AC50 (Cytochrome P450 3A4): 0.891 µM (inconclusive)
AC50 (Cytochrome P450 2C9 [7]): inconclusive
AC50 (Cytochrome P450 2D6): 22.4 µM (inconclusive)

COc1ccc(Cl)cc1NC(=O)C12CCC(C)(C(=O)O1)C2(C)C (stereo unspecified)
AC50 (Cytochrome P450 2C9 [7]): inconclusive
AC50 (Cytochrome P450 1A2): 28.2 µM (inconclusive)

COC(=O)/C=C1/N=C(Nc2nc(C)cc(C)n2)N(c2ccc(C)c(C)c2)C1=O
EC50 [10]: > 260 µM (inactive)

C(=C\n1nnc2ccccc21)/c1ccc[nH]1
EC50 [2]: 9.95 µM (active)
EC50 [3]: 28.4 µM (active)
EC50 (H4): 32 µM (active)

O=[N+]([O-])c1ccc(/C=N/c2ccc(Cl)cc2Cl)s1
AC50 (Cytochrome P450 2C9 [17]): 2.24 µM (inconclusive)
AC50 [1]: 7.83 µM (active)

Cc1ccc(C(=N)NOC(=O)N2c3ccccc3Sc3ccccc32)cc1
CC50 [9]: 96.4 µM (active)
IC50 [15]: 134 µM (active)
CC50 [4]: > 40 µM (active)
